According to patent US20040235747A1, “Methods of treating and/or preventing autoimmune diseases” (Ramot At Tel-Aviv University Ltd., priority 2003, published 2004):

Key:
MOG-induced EAE mice = experiment: MOG-induced chronic autoimmune encephalomyelitis (EAE), clinical score; assay type: in vivo, C57/b mice; settings: NAP intranasal 0.1 microgram/mouse daily; day 11 on, P<0.01, t-test, vs control mixture without NAP (FIG. 1)
splenocytes = experiment: Proliferative T-cell response of splenocytes (thymidine incorporation) from MOG-induced EAE mice; assay type: cell-based, mouse
Text: FIG. 2 illustrates the thymidine incorporation into splenocytes in a MOG-induced mouse model in the presence (filled circles) or absence (open circles) of NAP.
An additional experiment included proliferative T-cell response performed as described by Offen et al., supra.

Substance: Asn-Ala-Pro-Val-Ser-Ile-Pro-Gln [NAP]
- clinical outcome (clinical manifestations of EAE, score 0-6) (MOG-induced EAE mice): significantly improved the clinical outcome
- proliferative response of splenocytes (cell proliferation, immune response) (splenocytes; MS model treated with NAP compared to untreated, P<0.01 (FIG. 2)): much reduced
- effect of added MOG on splenocyte proliferation (splenocytes; splenocytes of NAP-treated animals, MOG up to 25 micrograms, untreated splenocytes showed increased proliferation even at 2 micrograms/well): no effect
